{
  "source": "patent US5422352A",
  "about": "“Slimming pharmaceutical composition” (Nycomed Dak A/S, priority 1989, dated 1995)",
  "key": {"[1]": {"test": "safety evaluation in healthy volunteers: side effects, blood pressure, heart rate (Example 2)", "assay_type": "in vivo, human", "details": "40 mg ephedrine hydrochloride", "protocol": "Arterial blood pressure was measured in the right arm by a sphygmomanometer a.m. Riva-Rocci, and heart rate was determined by palpation of the peripheral heart rate in the ipsilateral radial artery. These measurements were performed after each sampling of blood.\nA \"Trimline\" apparatus manufactured by PyMaH (Copenhagen) was used to measure the arterial blood pressure. A cuff 12-14 cm in width was employed. […] The diastolic blood pressure was determined as the manometer pressure when the Korotkoff sound quality changes from tapping to muffled.\nAt the end of each study comprising oral administration of the actual test substance, subjective feelings of side-effects were assessed by questioning the experimental subjects."}, "[2]": {"test": "laboratory methods: fasting serum glucose, triglycerides, cholesterol in obese patients (Example 5)", "assay_type": "in vivo, human", "protocol": "Blood and urine samples for laboratory tests were taken before entry, and after 12 and 24 weeks.\nMetabolic factors: In order to evaluate changes in the glucose and lipid metabolism of the patients during the study, triglyceride acid (TGA), cholesterol and fasting glucose were analyzed.\nAll clinical-chemical analyses apart from TGA and test strips for urine, were carried out at Department of Clinical Chemistry, Hvidovre Hospital, in accordance with their routine methods and assays, including the department's running quality control. The methods and the assays are routine procedures and are well-documented (7,40-48). TGA was analyzed and test strips for urine assessed at the Department of Internal Medicine, Division of Endocrinology, Hvidovre Hospital's own laboratory following the same routine procedures as above (26).\n(§1) The mean difference of blood pressure, heart rate and laboratory data from the initial values (week 0) at week 12 and at week 24 was compared to initial values for each treatment group by Students' one sample t-test (SAS). Comparison of the treatment groups at a particular visit was done by one-way analysis of variance (SAS.GLM). The difference from initial values was used in order to prevent chance events influencing the results. Patients with high values, for instance, who dropped out would thus influence the mean value at the next control, without a real difference being present."}, "[3]": {"test": "adverse drug reactions in obese patients, 24 weeks (Example 5)", "assay_type": "in vivo, human", "excerpt": "14 days after discontinuation of the treatment, a psychiatrist recorded any inconveniences the patient might have had during this period and physical and psychological symptoms were registered."}, "[4]": {"test": "blood pressure and heart rate in obese patients, 24 weeks (Example 5)", "assay_type": "in vivo, human", "details": "week 24", "protocol": "Blood pressure was measured with a Trimline Sphygmomanometer (PyMaH) by the investigator every 4 weeks. After at least 10 minutes rest, the measurements were carried out in the right arm of the patient a.m. Riva-Rocci with the patient being positioned in a sitting position. A cuff of 14 to 16 cm width was employed. […] The diastolic blood pressure was determined at the manometer pressure when the Korotkoff sound quality changes from tapping to muffled.\nThe heart rate was determined by palpation of the peripheral heart rate in the right radial artery.\nas §1"}, "[5]": {"test": "laboratory methods in healthy volunteers: serum glucose, NEFA, glycerol (Example 2)", "assay_type": "in vivo, human", "details": "oral", "protocol": "Through the indwelling antecubital cannula, blood was sampled without stasis in iced syringes. The blood samples were then centrifuged at 4° C. and nonesterified fatty acids (NEFA) were immediately extracted from the blood samples and later determined as described in (22). The concentration of glucose in plasma was determined using the glucose oxidase method (23), the concentration of glycerol in plasma was determined as described by Laurell and Tibbling (24), the concentration of lactate in plasma was described using the method described by Noll (25), and the concentration of triglyceride in plasma was determined as described by Giegel (26). Blood samples for the determination of methylxanthine metabolites was collected in tubes containing reduced glutathione and ethylene glycol-bis(β-aminoethyl)-N,N,N',N'-tetraacetic acid (EGTA). Samples were immediately centrifuged and the plasma was stored at -40° C. until the determination of methylxanthines was performed (see Example 4). Immunoreactive insulin, pancreatic glucagon and C-peptide concentrations were measured in the plasma samples using radioimmunoassay kits purchased from Novo, Copenhagen. All plasma aliquots for determination of pancreatic hormones and methylxanthine metabolites were coded and analyzed in a random order to avoid any systematic error due to the order of analysis. The concentrations of sodium and potassium in the plasma samples were determined by flame spectrophotometry."}, "[6]": {"details": "ephedrine 50 mg; ephedrine plus caffeine 50 mg+100 mg; oral, 4 months; cited from earlier work"}, "resting skeletal muscle": {"system": "resting skeletal muscle", "details": "in vivo; cited from earlier work"}, "[7]": {"test": "thermogenic effect: energy expenditure in healthy volunteers by indirect calorimetry (Example 2)", "assay_type": "in vivo, human", "details": "for Mean energy expenditure during 3 hours: oral single dose, not placebo-corrected; for Energy expenditure greater than placebo: mean±SE, minimum figure", "protocol": "The study was conducted in two parts. The first part was designed as a placebo-controlled, double-blind trial on the effect of 3 different doses of caffeine, 3 different doses of ephedrine and 2 placebo samples. The order of the tests were not entirely randomized, but organized in a sequence that allowed testing for a carry-over effect.\n6 healthy volunteers of normal weight (3 of each sex) aged between 20 and 32 were included after informed consent was obtained. The average age of the 6 volunteers was 25 (±1) years, height, 179 (±11) cm; body weight, 70 (±13) kg; percentage of overweight, -1.7 (±8.3) % and body fat, 13 (±3) kg. The numbers in parenthesis are the standard deviation. The percentages of overweight was calculated from the individual body weight (IBW) using the midpoint of the medium frame (MMF) given in the Metropolitan Life Insurance Company tables of desirable weights (1): [formula]\nA. Treatment with ephedrine comprising capsules with 10 mg, 20 mg or 40 mg of ephedrine hydrochloride, respectively.\nB. Treatment with caffeine comprising capsules with 100 mg, 200 mg or 400 mg of caffeine, respectively. […]\nThe capsules were administered orally as single doses and swallowed with 300 ml of tap water (20° C.).\nAll blood samples for determination of substrate, metabolite and hormone concentrations were collected form the antecubital vein. Blood samples were taken at -30, 0, 30, 60, 90, 120, 150 and 180 minutes relative to the capsule intake (time 0). The subjects breathed through a low-resistance Scuba one-way mouthpiece. After about 10 minutes of adaptation, expiratory gas was collected in Douglas bags for 10 minute periods. Gas collection was made after each blood sampling.\nEnergy expenditure was measured by indirect calorimetry. Expiratory gas was continuously analyzed for the content of oxygen and carbon dioxide with a Godart Rapox Oxygenmeter and a Beckman LB-1 Medical Gas Analyzer. Respiratory steady state was assumed to be present, when the end-expiratory carbon dioxide fraction was constant. Expiratory gas was collected in Douglas bags and analyzed for the content of oxygen and carbon dioxide with Radiometer gas-electrodes connected to an acid-base analyzer (PHM 71, Copenhagen, Denmark), and the volume of expiration gas was measured with a gas meter. […] The standard gasses were analyzed with a Scholander microtechnique with a measuring error on gas fraction being <0.0005%, i.e. the error on measurement of expired gas being within ±0.1-0.2% (19). […] A fixed protein catabolism was assumed, since the error on calculating the energy expenditure by omitting the exact correction from urinary nitrogen was negligible (20). The energy expenditure was calculated taking de novo lipogenesis into account (21).\nThe responses to a test substance were estimated separately for each subject as the difference between the integrated numerical area of the response curve (by a trapezoidal approach) and the rectangular area determined by the basal values. To estimate the predictive, theoretical effect of combinations of ephedrine and caffeine, the single dose responses were added after subtracting the average placebo response. This calculation was performed separately for each subject before statistical analysis. A two-way analysis of variance for randomized blocks was performed (28) to test differences between experimental periods within the same experiment and to test differences between the responses to different stimuli (test substances). Post-hoc testing was applied to compare two means (28)."}, "[8]": {"details": "18 weeks, 2+2+1 tablet per day; cited from earlier work"}, "[9]": {"details": "3 ppm (3 mg/kg feed); cited from earlier work"}, "[10]": {"details": "week 12, difference from initial"}, "[11]": {"details": "week 24, difference from initial"}},
  "note": "Counter-ions that a name gives are not always drawn.",
  "data": [
    {"smiles": "CN[C@@H](C)[C@H](O)c1ccccc1", "note": "[Ephedrine, ephedrine hydrochloride]", "values": [
      {"measurement": "systolic blood pressure and heart rate (in words)", "setting": "[1]", "value": "excessive increase in systolic blood pressure and heart rate"},
      {"measurement": "Mean difference in fasting serum glucose", "setting": "[2]; [10]", "value": -0.55, "unit": "mmol/L"},
      {"measurement": "Mean difference in serum triglycerides", "setting": "[2]; [10]", "value": -0.14, "unit": "mmol/L"},
      {"measurement": "Mean difference in fasting serum cholesterol", "setting": "[2]; [11]", "value": -0.18, "unit": "mmol/L"},
      {"measurement": "Mean difference in fasting serum glucose", "setting": "[2]; [11]", "value": -0.46, "unit": "mmol/L"},
      {"measurement": "Mean difference in serum triglycerides", "setting": "[2]; [11]", "value": -0.66, "unit": "mmol/L"},
      {"measurement": "Patients complaining of adverse drug reactions", "setting": "[3]; 24 weeks", "value": 20, "unit": "patients"},
      {"measurement": "Patients withdrawn due to adverse drug reactions", "setting": "[3]; 24 weeks", "value": 1},
      {"measurement": "adverse reactions / withdrawal symptoms (in words)", "setting": "[3]; human, in vivo", "value": "34 patient complained of hunger, especially those who had been treated with ephedrine"},
      {"measurement": "Average diastolic blood pressure decrease", "setting": "[4]", "value": 6.9, "unit": "mmHg"},
      {"measurement": "Average diastolic blood pressure decrease, % of initial value", "setting": "[4]", "value": 8.6, "unit": "%"},
      {"measurement": "Average systolic blood pressure decrease", "setting": "[4]", "value": 8.7, "unit": "mmHg"},
      {"measurement": "Average systolic blood pressure decrease, % of initial value", "setting": "[4]", "value": 7.0, "unit": "%"},
      {"measurement": "Average heart rate decrease", "setting": "[4]; negative = increase", "value": -3.1, "unit": "BPM"},
      {"measurement": "Average heart rate decrease, % of initial value", "setting": "[4]; negative = increase", "value": -4.3, "unit": "%"},
      {"measurement": "serum nonesterified fatty acids and glycerol (in words)", "setting": "[5]", "value": "increased the concentrations of NEFA and glycerol in the serum"},
      {"measurement": "serum glucose (in words)", "setting": "[5]; vs placebo", "value": "hyperglycemic effect"},
      {"measurement": "weight loss (in words)", "setting": "[6]", "value": "no significant difference in weight loss"},
      {"measurement": "contribution of resting skeletal muscle to whole body thermogenesis induced", "setting": "resting skeletal muscle", "value": "at least 50%"},
      {"measurement": "Energy expenditure/(placebo value)", "setting": "[7]; 10 mg ephedrine hydrochloride", "value": 3.5},
      {"measurement": "Mean energy expenditure during 3 hours", "setting": "[7]; 10 mg ephedrine hydrochloride", "value": 22.2, "unit": "kcal/3 h"},
      {"measurement": "Energy expenditure greater than placebo", "setting": "[7]; 10 mg ephedrine hydrochloride", "value": "16.0±10.9", "unit": "kcal/3 h"},
      {"measurement": "Energy expenditure/(placebo value)", "setting": "[7]; 20 mg ephedrine hydrochloride", "value": 2.0},
      {"measurement": "Mean energy expenditure during 3 hours", "setting": "[7]; 20 mg ephedrine hydrochloride", "value": 12.5, "unit": "kcal/3 h"},
      {"measurement": "Energy expenditure greater than placebo", "setting": "[7]; 20 mg ephedrine hydrochloride", "value": "6.3±5.3", "unit": "kcal/3 h"},
      {"measurement": "Energy expenditure/(placebo value)", "setting": "[7]; 40 mg ephedrine hydrochloride", "value": 3.0},
      {"measurement": "Mean energy expenditure during 3 hours", "setting": "[7]; 40 mg ephedrine hydrochloride", "value": 18.3, "unit": "kcal/3 h"},
      {"measurement": "Energy expenditure greater than placebo", "setting": "[7]; 40 mg ephedrine hydrochloride", "value": "12.1±4.9", "unit": "kcal/3 h"},
      {"measurement": "thermogenic effect (in words)", "setting": "[7]; human, in vivo", "value": "possess thermogenic activity"},
      {"measurement": "average weight loss", "setting": "[8]", "value": 7.9, "unit": "kg"}
    ]},
    {"smiles": "CC(C)(C)NCC(O)c1ccc(O)c(CO)c1", "note": "(stereo not shown) [salbutamol]", "values": [
      {"measurement": "fat and protein accretion (in words)", "setting": "[9]", "value": "decreases fat accretion and increases protein accretion in growing pigs"}
    ]}
  ]
}
